How the values were obtained:
[1] = test system: RKO (RKOp27) human colon adenocarcinoma cells; assay: Alamar Blue cell viability assay, anti-proliferative/cytotoxic activity on proliferating RKOp27 cells; type: cell-based; conditions: absence of Ponasterone A, 72 hours incubation, read-out: IC50 RKO p27 proliferating
Procedure: The anti-proliferative/cytotoxic activity of the compounds described herein, can be tested on subclones of RKO (RKOp27) human colon adenocarcinoma cells (Schmidt et al., Oncogene 19, 2423-2429; 2000) using the Alamar Blue cell viability assay (described in O'Brien et al. Eur J Biochem 267, 5421-5426, 2000). The compounds are dissolved as 20 mM solutions in dimethylsulfoxide (DMSO) and subsequently diluted in semi-logarithmic steps. DMSO dilutions are further diluted 1:100 into Dulbecco's modified Eagle's medium (DMEM) containing 10% fetal calf serum to a final concentration twice as much as the final concentration in the test. RKO subclones are seeded into 96 well flat bottom plates at a density of 4000 cells per well in a volume of 50 μl per well. 24 hours after seeding 50 μl each of the compound dilutions in DMEM are added into each well of the 96 well plate. Each compound dilution is tested as quadruplicates. Wells containing untreated control cells are filled with 50 μl DMEM containing 1% DMSO. The cells are then incubated with the substances for 72 hours at 37° C. in a humidified atmosphere containing 5% carbon dioxide. To determine the viability of the cells, 10 μl of an Alamar Blue solution (Biosource) are added and the fluorescence is measured at an extinction of 544 nm and an emission of 590 nm. For the calculation of the cell viability the emission value from untreated cells is set as 100% viability and the emission rates of treated cells are set in relation to the values of untreated cells. Viabilities are expressed as % values.
The corresponding IC50 values of the compounds for anti-proliferative/cytotoxic activity are determined from the concentration-effect curves.
Representative IC50 values for anti-proliferation/cytotoxicity determined in the aforementioned assay are described in the table A (1st column), in which the numbers of the compound correspond to the numbers of the examples.

[2] = test system: RKO colon adenocarcinoma cells (RKOp27) arrested by expression of ectopic p27Kip1; assay: Alamar Blue cell viability assay on RKOp27 cells arrested by Ponasterone A-induced p27Kip1 (cell cycle specific mode of action); type: cell-based; conditions: Homo sapiens, RKOp27, 72 h, cells arrested by p27Kip1 induced with 10 μM Ponasterone A, 72 hours incubation, read-out: IC50 RKO p27 arrested
Procedure: To determine the cell cycle specific mode of action, subclones of RKO colon adenocarcinoma cells (RKOp27 or RKOp21 as described by Schmidt et al. in Oncogene 19, 2423-2429; 2000) are seeded into 96 well flat bottom plates at a density of 16000 cells per well in a volume of 50 μl per well in DMEM growth medium with 10% FCS containing 10 μM Ponasterone A. 24 hours after seeding 50 μl each of the compound dilutions in DMEM are added into each well of the 96 well plate. Each compound dilution is tested as quadruplicates. Wells containing untreated control cells are filled with 50 μl DMEM containing 1% DMSO. The cells are then incubated with the substances for 72 hours at 37° C. in a humidified atmosphere containing 5% carbon dioxide. To determine the viability of the cells, 10 μl of an Alamar Blue solution (Biosource) are added and the fluorescence is measured at an extinction of 544 nm and an emission of 590 nm. For the calculation of the cell viability the emission value from untreated cells is set as 100% viability and the emission rates of treated cells are set in relation to the values of untreated cells. Viabilities are expressed as % values. Viability is compared of proliferating cells grown in the absence of the inducer Ponasterone A, versus viability of cells arrested by the expression of ectopic p27Kip1 induced by Ponasterone A. The data of this experimental setting are summarized in table A (2nd column).

CCOC(=O)N1CCc2c(sc(NC(=O)/C=C/c3ccccc3)c2C#N)C1 [Example 1, N-(6-Ethoxycarbonyl-3-cyano-4,5,6,7-tetrahydro-thieno[2,3-c]pyridin-2-yl)-3-phenyl-acrylamide]
IC50 [1]: < 1 µM | IC50 [2]: > 100 µM

CC(C)(C)OC(=O)N1CCc2c(sc(NC(=O)/C=C/c3ccccc3)c2C#N)C1 [Example 2, N-(6-tert-Butoxycarbonyl-3-cyano-4,5,6,7-tetrahydro-thieno[2,3-c]pyridin-2-yl)-3-phenyl-acrylamide]
IC50 [1]: ≤ 2 µM | IC50 [2]: > 100 µM

CCOC(=O)N1CCc2c(sc(NC(=O)/C=C/c3ccccc3Cl)c2C#N)C1 [Example 4, N-(6-Ethoxycarbonyl-3-cyano-4,5,6,7-tetrahydro-thieno[2,3-c]pyridin-2-yl)-3-(2-chlorophenyl)-acrylamide]
IC50 [1]: ≤ 2 µM | IC50 [2]: > 100 µM

CCOC(=O)N1CCc2c(sc(NC(=O)/C=C/c3cccnc3)c2C#N)C1 [Example 7, N-(6-Ethoxycarbonyl-3-cyano-4,5,6,7-tetrahydro-thieno[2,3-c]pyridin-2-yl)-3-pyridyl-acrylamide]
IC50 [1]: ≤ 2 µM | IC50 [2]: > 100 µM

CCOC(=O)N1CCc2c(sc(NC(=O)/C=C/c3cccs3)c2C#N)C1 [Example 8, 3-Cyano-2-((E)-3-thiophen-2-yl-allanoylamino)-4,7-dihydro-5H-thieno[2,3-c]pyridine-6-carboxylic acid ethyl ester]
IC50 [1]: ≤ 2 µM | IC50 [2]: > 100 µM

CCOC(=O)N1CCc2c(sc(NC(=O)/C=C/c3ccsc3)c2C#N)C1 [Example 9, 3-Cyano-2-((E)-3-thiophen-3-yl-allanoylamino)-4,7-dihydro-5H-thieno[2,3-c]pyridine-6-carboxylic acid ethyl ester]
IC50 [1]: ≤ 2 µM | IC50 [2]: > 100 µM

CCOC(=O)N1CCc2c(sc(NC(=O)/C=C/c3ccco3)c2C#N)C1 [Example 10, 3-Cyano-2-((E)-3-furan-2-yl-allanoylamino)-4,7-dihydro-5H-thieno[2,3-c]pyridine-6-carboxylic acid ethyl ester]
IC50 [1]: ≤ 2 µM | IC50 [2]: > 100 µM

CCOC(=O)N1CCc2c(sc(NC(=O)/C=C/c3ccoc3)c2C#N)C1 [Example 11, 3-Cyano-2-((E)-3-furan-3-yl-allanoylamino)-4,7-dihydro-5H-thieno[2,3-c]pyridine-6-carboxylic acid ethyl ester]
IC50 [1]: ≤ 2 µM | IC50 [2]: > 100 µM

CCOC(=O)N1CCc2c(sc(NC(=O)/C=C/c3ccccc3C)c2C#N)C1 [Example 12, 3-Cyano-2-((E)-3-o-tolyl-allanoylamino)-4,7-dihydro-5H-thieno[2,3-c]pyridine-6-carboxylic acid ethyl ester]
IC50 [1]: ≤ 2 µM | IC50 [2]: > 100 µM

CCOC(=O)N1CCc2c(sc(NC(=O)/C=C/c3cccc(Cl)c3)c2C#N)C1 [Example 13, 2-[(E)-3-(3-Chloro-phenyl)-allanoylamino]-3-cyano-4,7-dihydro-5H-thieno[2,3-c]pyridine-6-carboxylic acid ethyl ester]
IC50 [1]: ≤ 2 µM | IC50 [2]: > 100 µM

CCOC(=O)N1CCc2c(sc(NC(=O)/C=C/c3cccc(C)c3)c2C#N)C1 [Example 16, 3-Cyano-2-((E)-3-m-tolyl-allanoylamino)-4,7-dihydro-5H-thieno[2,3-c]pyridine-6-carboxylic acid ethyl ester]
IC50 [1]: ≤ 2 µM | IC50 [2]: > 100 µM

CCOC(=O)N1CCc2c(sc(NC(=O)/C=C/c3cccc(OC)c3)c2C#N)C1 [Example 19, 3-Cyano-2-[(E)-3-(3-methoxy-phenyl)-allanoylamino]-4,7-dihydro-5H-thieno[2,3-c]pyridine-6-carboxylic acid ethyl ester]
IC50 [1]: ≤ 2 µM | IC50 [2]: > 100 µM

CCOC(=O)N1CCc2c(sc(NC(=O)/C=C/c3cccc(OC)c3OC)c2C#N)C1 [Example 20, 3-Cyano-2-[(E)-3-(2,3-dimethoxy-phenyl)-allanoylamino]-4,7-dihydro-5H-thieno[2,3-c]pyridine-6-carboxylic acid ethyl ester]
IC50 [1]: ≤ 2 µM | IC50 [2]: > 100 µM

CCOC(=O)N1CCc2c(sc(NC(=O)/C=C/c3cccc(F)c3)c2C#N)C1 [Example 21, 3-Cyano-2-[(E)-3-(3-fluoro-phenyl)-allanoylamino]-4,7-dihydro-5H-thieno[2,3-c]pyridine-6-carboxylic acid ethyl ester]
IC50 [1]: ≤ 2 µM | IC50 [2]: > 100 µM

CCOC(=O)N1CCc2c(sc(NC(=O)/C=C/c3ccccc3C(F)(F)F)c2C#N)C1 [Example 23, 3-Cyano-2-[(E)-3-(2-trifluoromethyl-phenyl)-allanoylamino]-4,7-dihydro-5H-thieno[2,3-c]pyridine-6-carboxylic acid ethyl ester]
IC50 [1]: ≤ 2 µM | IC50 [2]: > 100 µM

CCOC(=O)N1CCc2c(sc(NC(=O)/C=C/c3ccccc3OC)c2C#N)C1 [Example 24, 3-Cyano-2-[(E)-3-(2-methoxy-phenyl)-allanoylamino]-4,7-dihydro-5H-thieno[2,3-c]pyridine-6-carboxylic acid ethyl ester]
IC50 [1]: ≤ 2 µM | IC50 [2]: > 100 µM

CCOC(=O)N1CCc2c(sc(NC(=O)/C=C/c3ccc(N(C)C)cc3)c2C#N)C1 [Example 26, 3-Cyano-2-[(E)-3-(4-dimethylamino-phenyl)-allanoylamino]-4,7-dihydro-5H-thieno[2,3-c]pyridine-6-carboxylic acid ethyl ester]
IC50 [1]: ≤ 2 µM | IC50 [2]: > 100 µM

CCOC(=O)N1CCc2c(sc(NC(=O)/C=C/c3ccc(C)cc3)c2C#N)C1 [Example 27, 3-Cyano-2-((E)-3-p-tolyl-allanoylamino)-4,7-dihydro-5H-thieno[2,3-c]pyridine-6-carboxylic acid ethyl ester]
IC50 [1]: ≤ 2 µM | IC50 [2]: > 100 µM

CCOC(=O)N1CCc2c(sc(NC(=O)/C=C/c3ccc(Cl)cc3Cl)c2C#N)C1 [Example 28, 3-Cyano-2-[(E)-3-(2,4-dichloro-phenyl)-allanoylamino]-4,7-dihydro-5H-thieno[2,3-c]pyridine-6-carboxylic acid ethyl ester]
IC50 [1]: ≤ 2 µM | IC50 [2]: > 100 µM

CCOC(=O)N1CCc2c(sc(NC(=O)/C=C/c3cccc([N+](=O)[O-])c3)c2C#N)C1 [Example 29, 3-Cyano-2-[(E)-3-(3-nitro-phenyl)-allanoylamino]-4,7-dihydro-5H-thieno[2,3-c]pyridine-6-carboxylic acid ethyl ester]
IC50 [1]: ≤ 2 µM | IC50 [2]: > 100 µM

CCOC(=O)N1CCc2c(sc(NC(=O)/C=C/c3ccc4c(c3)OCO4)c2C#N)C1 [Example 30, 2-((E)-3-Benzo[1,3]dioxol-5-yl-allanoylamino)-3-cyano-4,7-dihydro-5H-thieno[2,3-c]pyridine-6-carboxylic acid ethyl ester]
IC50 [1]: ≤ 2 µM | IC50 [2]: > 100 µM

CC(C)(C)OC(=O)N1CCc2c(sc(NC(=O)/C=C/c3cccnc3)c2C#N)C1 [Example 32, 3-Cyano-2-((E)-3-pyridin-3-yl-allanoylamino)-4,7-dihydro-5H-thieno[2,3-c]pyridine-6-carboxylic acid tert-butyl ester]
IC50 [1]: ≤ 2 µM | IC50 [2]: > 100 µM

CCCC(=O)N1CCc2c(sc(NC(=O)/C=C/c3ccccc3)c2C#N)C1 [Example 33, (E)-N-(6-Butyryl-3-cyano-4,5,6,7-tetrahydro-thieno[2,3-c]pyridin-2-yl)-3-phenyl-acrylamide]
IC50 [1]: ≤ 2 µM | IC50 [2]: > 100 µM

CC(=O)N1CCc2c(sc(NC(=O)/C=C/c3ccccc3)c2C#N)C1 [Example 34, (E)-N-(6-Acetyl-3-cyano-4,5,6,7-tetrahydro-thieno[2,3-c]pyridin-2-yl)-3-phenyl-acrylamide]
IC50 [1]: ≤ 2 µM | IC50 [2]: > 100 µM

CCSC(=O)N1CCc2c(sc(NC(=O)/C=C/c3ccccc3)c2C#N)C1 [Example 35, 3-Cyano-2-((E)-3-phenyl-allanoylamino)-4,7-dihydro-5H-thieno[2,3-c]pyridine-6-carbothioic acid S-ethyl ester]
IC50 [1]: ≤ 2 µM | IC50 [2]: > 100 µM
